Laboratory results from patent US5204323A, “Heparin and hirudin antidotal compositions and methods” (Ciba-Geigy Corporation, priority 1988, dated 1993).

Legend:
[1] = system: hirudin induced elevation of APTT in human plasma; test: Hirudin induced elevation of APTT in vitro in blood samples taken after DDAVP infusion; type: in vivo; settings: blood samples of human volunteers after DDAVP infusion (0.3 mg/kg, 15 minutes); desulphatohirudin HV1 added in vitro; FIG. 7
Method: The anticoagulant effects of hirudin are measured in vitro on human plasma to which various concentrations of hirudin (in saline) have been added, one minute prior to APTT determination (Activated partial thromboplastin time; means for measuring blood clotting according to Basu et al. (1972) N. Engl. J. Med. 287, 324). Different concentrations of FVIII (reconstituted in water in accordance with the manufacturers specification) are added and the results are shown in FIG. 3 of the accompanying drawings. The anticoagulant effects of hirudin are measured by APTT.
(§1) 1-Deamino-8-D-arginine vasopressin (DDAVP) ([…] in sterile saline) is infused into human volunteers over a 15 minute period between times 0-15 minutes. Subsequently blood samples are taken and FVIII levels measured (Langdell et al. (1953) J. Lab. Chim. Med. 41, 637) and the correspond. ing effect on hirudin induced elevation of APTT in vitro asessed. The results are shown in FIG. 7 which represent a typical example of ten volunteer studies. […] Results are compared to volume matched saline controls.

[2] = system: Factor VIII levels in human plasma; test: DDAVP infusion into human volunteers, Factor VIII levels in plasma; type: in vivo; settings: DDAVP 0.3 mg/kg in sterile saline infused over 15 minutes, compared to volume matched saline controls, FIG. 7
Method: as §1

## NC(=O)CC[C@@H]1NC(=O)[C@H](Cc2ccccc2)NC(=O)[C@H](Cc2ccc(O)cc2)NC(=O)CCSSC[C@@H](C(=O)N2CCC[C@H]2C(=O)N[C@H](CCCN=C(N)N)C(=O)NCC(N)=O)NC(=O)[C@H](CC(N)=O)NC1=O [DDAVP, 1-deamino-8-D-arginine vasopressin]
[1]
  effect on hirudin induced elevation of APTT in vitro: reduces the degree of anticoagulation induced by hirudin
[2]
  FVIII levels: raised FVIII levels
